Reference: US6432949B1, “Amide derivatives useful as inhibitors of the production of cytokines” (AstraZeneca AB, priority 1998, dated 2002)

How the values were obtained:
TNFα production [1] = assay: PBMC test: TNFα production by LPS-stimulated human peripheral blood mononuclear cells; type: cell-based
Protocol: The ability of compounds of this invention to inhibit TNFα production was assessed by using human peripheral blood mononuclear cells which synthesise and secrete TNFα when stimulated with lipopolysaccharide.
Peripheral blood mononuclear cells (PBMC) were isolated from heparinised (10 units/ml heparin) human blood by density centrifugation (Lymphoprep™; Nycomed). Mononuclear cells were resuspended in culture medium [RPMI 1640 medium (Gibco) supplemented with 50 units/ml penicillin, 50 μg/ml streptomycin, 2 mM glutamine and 1% heat-inactivated human AB serum (Sigma H-1 513)]. Compounds were solubilised in DMSO at a concentration of 50 mM, diluted 1:100 in culture medium and subsequently serial dilutions were made in culture medium containing 1% DMSO. PBMCs (2.4×10^5 cells in 160 μl culture medium) were incubated with 20 μl of varying concentrations of test compound (triplicate cultures) or 20 μl culture medium containing 1% DMSO (control wells) for 30 minutes at 37° C. in a humidified (5%CO2/95% air) incubator (Falcon 3072; 96 well flat-bottom tissue culture plates). 20 μl lipopolysaccharide [LPS E.Coli 0111:B4 (Sigma L4130), final concentration 10 μg/ml] solubilised in culture medium was added to appropriate wells. 20 μl culture medium was added to “medium alone” control wells. Six “LPS alone” and four “medium alone” controls were included on each 96 well plate. Varying concentrations of a known TNFα inhibitor were included in each test, i.e. an inhibitor of the PDE Type IV enzyme (for example see Semmler, J. Wachtel. H. and Endres, S., Int. J. Immunopharmac. (1993), 15(3), 409-413) or an inhibitor of proTNFα convertase (for example, see McGeehan, G. M. et al. Nature (1994) 370, 558-561). Plates were incubated for 7 hours at 37° C. (humidified incubator) after which 100 μl of the supernatant was removed from each well and stored at −70° C. (96 well round-bottom plates; Corning 25850). TNFα levels were determined in each sample using a human TNFα ELISA (see WO92/10190 and Current Protocols in Molecular Biology, vol 2 by Frederick M. Ausbel et al., John Wiley and Sons Inc.).
% inhibition=(LPS alone−medium alone)−(test concentration−medium alone)×100(LPS alone−medium alone)

p38α = target: T1, p38α (Homo sapiens, UniProt Q16539); assay: In vitro enzyme assay, p38α isoform; type: biochemical; conditions: read-out: IC50 against p38α
T1 construct: c-myc (N); 6His (N); made in house; host or cells: E. coli (PET vectors)
T1 sequence (Q16539 whole entry, canonical isoform): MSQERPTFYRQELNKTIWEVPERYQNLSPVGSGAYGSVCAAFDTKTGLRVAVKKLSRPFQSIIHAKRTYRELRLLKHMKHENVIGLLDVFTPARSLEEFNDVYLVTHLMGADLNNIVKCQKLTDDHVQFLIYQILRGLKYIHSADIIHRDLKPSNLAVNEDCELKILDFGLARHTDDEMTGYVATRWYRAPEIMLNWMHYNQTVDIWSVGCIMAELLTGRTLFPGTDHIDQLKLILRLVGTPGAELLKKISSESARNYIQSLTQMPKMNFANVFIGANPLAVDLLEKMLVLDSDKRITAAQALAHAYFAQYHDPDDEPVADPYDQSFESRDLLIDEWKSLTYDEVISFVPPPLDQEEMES
Protocol: The ability of compounds of the invention to inhibit the enzyme p38 kinase was assessed. Activity of test compounds against each of the p38α and […] isoforms of the enzyme was determined.
Human recombinant MKK6 (GenBank Accesion Number G1209672) was isolated from Image clone 45578 (Genomics 1996, 33, 151) and utilised to produce protein in the form of a GST fusion protein in a pGEX vector using analogous procedures to those disclosed by J. Han et al., Journal of Biological Chemistry, 1996, 271, 2886-2891. p38α (GenBank Accession Number G529039) and p38β (GenBank Accession Number G1469305) were isolated by PCR amplification of human lymphoblastoid cDNA (GenBank Accession Number GM1416) and human foetal brain cDNA [synthesised from mRNA (Clontech, catalogue no. 6525-1) using a Gibco superscript cDNA synthesis kit] respectively using oligonucleotides designed for the 5′ and 3′ ends of the human p388α and p38β genes using analogous procedures to those described by J. Han et al., Biochimica et Biolphysica Acta, 1995, 1265, 224-227 and Y. Jiang et al., Journal of Biological Chemistry, 1996, 271, 17920-17926.
Both p38 protein isoforms were expressed in e coli in PET vectors. Human recombinant p38α and p38β isoforms were produced as 5′ c-myc, 6His tagged proteins. Both MKK6 and the p38 proteins were purified using standard protocols: the GST MKK6 was purified using a glutathione sepharose column and the p38 proteins were purified using nickel chelate columns.
The p38 enzymes were activated prior to use by incubation with MKK6 for 3 hours at 30° C. The unactivated coli-expressed MKK6 retained sufficient activity to fully activate both isoforns of p38. The activation incubate comprised p38α (10 μl of 10 mg/ml) or p38β (10 μl of 5 mg/ml) together with MKK6 (10 μl of 1 mg/ml), ‘Kinase buffer’ [100 μl; pH 7.4 buffer comprising Tris (50 mM), EGTA (0.1 mM), sodium orthovanadate (0.1 mM) and β-mercaptoethanol (0.1%)] and MgATP (30 μl of 50 mM Mg(OCOCH3)2 and 0.5 mM ATP). This produced enough activated p38 enzyme for 3 Microtiter plates.
Test compounds were solubilised in DMSO and 10 μl of a 1:10 diluted sample in ‘Kinase Buffer’ was added to a well in a Microtiter plate. For single dose testing, the compounds were tested at 10 μM. ‘Kinase Assay Mix’ [30 μl; comprising Myelin Basic Protein (Gibco BRL cat. no. 1322B-010; 1 ml of a 3.33 mg/ml solution in water), activated p38 enzyme (50 μl) and ‘Kinase Buffer’ (2 ml)] was then added followed by ‘Labelled ATP’ [10 μl; comprising 50 μM ATP, 0.1 μCi ^33P ATP (Amersham International cat. no. BF1000) and 50 mM Mg(OCOCH3)2]. The plates were incubated at room temperature with gentle agitation. Plates containing p38α were incubated for 90 min and plates containing p38β were incubated for 45 min. Incubation was stopped by the addition of 50 μl of 20% trichloroacetic acid (TCA). The precipitated protein was phosphorylated by p38 kinase and test compounds were assessed for their ability to inhibit this phosphorylation. The plates were filtered using a Canberra Packard Unifilter and washed with 2% TCA, dried overnight and counted on a Top Count scintillation counter.
Test compounds were tested initially at a single dose and active compounds were retested to allow IC50 values to be determined.

TNFα production [2] = assay: Human Whole Blood (HWB) test: TNFα production by LPS-stimulated human whole blood; type: cell-based
Protocol: The ability of the compounds of this invention to inhibit TNFα production was also assessed in a human whole blood assay. Human whole blood secretes TNFα when stimulated with LPS. This property of blood forms the basis of an assay which is used as a secondary test for compounds which profile as active in the PBMC test.
Heparinised (10 units/ml) human blood was obtained from volunteers. 160 μl whole blood were added to 96 well round-bottom plates (Corning 25850). Compounds were solubilised and serially diluted in RPMI 1640 medium (Gibco) supplemented with 50 units/ml penicillin, 50 μg/ml streptomycin and 2 mM glutamine, as detailed above. 20 μl of each test concentration was added to appropriate wells (triplicate cultures). 20 μl of RPMI 1640 medium supplemented with antibiotics and glutamine was added to control wells. Plates were incubated for 30 minutes at 37° C. (humidified incubator), prior to addition of 2011 LPS (final concentration 10 μg/ml). RPMI 1640 medium was added to control wells. Six “LPS alone” and four “medium alone” controls were included on each plate. A known TNFα synthesis/secretion inhibitor was included in each test. Plates were incubated for 6 hours at 37° C. (humidified incubator). […] TNFα levels were measured by ELISA (see WO92/10190 and Current Protocols in Molecular Biology, vol 2 by Frederick M. Ausbel et al., John Wiley and Sons Inc.). […]

IC50 (TNFα production [1]; Homo sapiens, PBMC) [µM] | IC50 (p38α) [µM] | IC50 (TNFα production [2]) [µM] | Compound | IC50 (TNFα production [1]) [µM]
~9 | ~1 |  | Cc1ccc(NC(=O)c2cccc(N(C)C)c2)cc1NC(=O)c1ccc(Cl)nc1 [Example 1, 6-chloro-N-[5-(3-dimethylaminobenzamido)-2-methylphenyl]pyridine-3-carboxamide] | 
~5 | ~0.1 |  | Cc1ccc(NC(=O)c2cccc(N(C)C)c2)cc1NC(=O)c1ccc2ncsc2c1 [Example 8, Compound No. 2, N-[5-(3dimethylaminobenzamido)-2-methylphenyl]benzothiazole-6-carboxamide] | 
~2 | ~0.05 |  | N#Cc1ccc(C(=O)Nc2ccc(Cl)c(NC(=O)c3ccc4ncccc4c3)c2)cc1 [Example 10, N-[2-chloro-5-(4-cyanobenzamido)phenyl]quinoline6-carboxamide] | 
 | ~0.05 | ~3 | Cc1ccc(NC(=O)c2ccnc(N3CCOCC3)c2)cc1NC(=O)c1ccc(NCCCN(C)C)nc1 [Example 22(14), 6-(3-dimethylaminopropylamino)-N-[2-methyl-5-(2-morpholinopyrid-4-ylcarbonylamino)phenyl]pyridine-3-carboxamide] | 
~0.3 | ~0.05 | ~2 | Cc1ccc(NC(=O)c2ccnc(N3CCOCC3)c2)cc1NC(=O)c1ccc(NCCC2CCCN2C)nc1 (stereo not shown) [Example 22(18), 6-[2-(1-methylpyrrolidin-2-yl)ethylamino]-N-[2-methyl-5(2-morpholinopyrid-4-ylcarbonylamino)phenyl]pyridine-3-carboxamide] | 

Compound | IC50 (TNFα production [1]; Homo sapiens, PBMC) [µM] | IC50 (p38α) [µM] | IC50 (TNFα production [2]) [µM] | IC50 (TNFα production [1]) [µM]
N-[5-(5-isoxazolylcarbonylamino)2-methylphenyl]quinoline-6-carboxamide [Example 14] |  | ~0.1 |  | ~3
